Results on 1 molecule are retold here after patent publication US8962576B2, “Compositions and method for improving endothelial function and cardiovascular health” (Natreon, Inc., priority 2012, dated 2015).

Common to all, as to type: in vivo, human
Test [1] has as its system Type 2 Diabetic Subjects. Description: Clotting time, Capillary Tube Method, study (c) subset (i). To be noted: Table XIV-B, n = 10. The protocol: Clotting Time: Clotting time in seconds was recorded at baseline and at day 10, after 4 hrs post treatment in all the treatment groups by Capillary Tube Method. Normal Range-300-480 Sec.
The test system of test [2] is platelet aggregation. Kind of test: Inhibition of platelet aggregation using ADP as aggregant, study (c) subset (i). Particulars: Clopidogrel 75 mg single dose Day 1, CAPROS 500 mg BD multiple dose Day 10, combination Day 11, n = 10. Here is the method:
The platelet aggregation was determined by the following procedure using Wheecon chronologue dual channel platelet aggregometer (Wheecon Instruments Pvt. Ltd., Chemai, Tamilnadu, India). The percentage decrease in platelet aggregation was recorded at baseline and 3 hours post treatment. Approximately 9 ml of blood sample was collected in a 10 ml plastic test tube containing 1 ml of 3.8% Sodium Citrate from the cubital vein of the subject at baseline and after 3 hours post treatment in all the groups. The test was performed immediately within a time period of one and half hours from collection. The samples were centrifuged at 800 rpm for 15 minutes to obtain a platelet-rich plasma. […] The readings were recorded at baseline and after treatment with ADP. The percentage aggregation at baseline and the percentage inhibition of platelet aggregation on post treatment with all the four treatments was calculated. […]
The effect of CAPROS® 500 mg BD (multiple dose study), Clopidogrel 75 mg (single dose study) and Capros 500 mg+Clopidogrel 75 mg on platelet function was determined by the following procedure using the dual channel platelet aggregometer instrument, as described above. The percentage aggregation at baseline and the percentage inhibition of platelet aggregation on post treatment with all the three treatments was calculated.

Test [3] concerns Type 2 Diabetic Subjects. Description: Bleeding time, Duke's Method, study (c) subset (i). Particulars: Table XIV-A, n = 10. The protocol: Bleeding Time: Bleeding time in seconds was recorded at baseline and at day 10, after 4 hrs post treatment in all the treatment groups by Duke's Method. Normal Range: 60-180 Sec.
Setting [4] is: 4th Hr Post treatment, Clopidogrel 75 mg Day 1, CAPROS 500 mg BD Day 10, combination Day 11.
The mark [5] stands for this setting: Baseline, Clopidogrel 75 mg single dose, CAPROS 500 mg BD multiple dose, combination.

SMILES strings stand for the structures.

Regarding `COC(=O)[C@H](c1ccccc1Cl)N1CCc2sccc2C1` [CLOPIDOGREL, Clopidogrel], the “Bleeding Time, Mean” value in test [1] (setting [4]) came to 249.5 s; in test [1] (setting [5]) it was 207.5 s; in test [3] (setting [4]) it was 97.30 s; in test [3] (setting [5]), 84.40 s. Also, in test [2], the “inhibition of platelet aggregation, Mean” value came to 47.40%.
